According to US20240092773A1, “DIHYDRO-CYCLOPENTA-ISOQUINOLINE SULFONAMIDES DERIVATIVES” (UCB Biopharma SRL, priority 2019, published 2024):

Target: IgE-Tb binding to soluble IgE receptor FcεR1α (Y131A mutation) (Homo sapiens, UniProt P01854, N146Q/N252Q)
Assay: In vitro FRET assay: inhibition of binding of IgE-Tb to receptor FcεR1α-Y131A-AF488
Settings: read-out: FRET IC50 range

IgE-Tb binding to soluble IgE receptor FcεR1α (Y131A mutation), sequence (P01854 whole entry N146Q/N252Q, looked up): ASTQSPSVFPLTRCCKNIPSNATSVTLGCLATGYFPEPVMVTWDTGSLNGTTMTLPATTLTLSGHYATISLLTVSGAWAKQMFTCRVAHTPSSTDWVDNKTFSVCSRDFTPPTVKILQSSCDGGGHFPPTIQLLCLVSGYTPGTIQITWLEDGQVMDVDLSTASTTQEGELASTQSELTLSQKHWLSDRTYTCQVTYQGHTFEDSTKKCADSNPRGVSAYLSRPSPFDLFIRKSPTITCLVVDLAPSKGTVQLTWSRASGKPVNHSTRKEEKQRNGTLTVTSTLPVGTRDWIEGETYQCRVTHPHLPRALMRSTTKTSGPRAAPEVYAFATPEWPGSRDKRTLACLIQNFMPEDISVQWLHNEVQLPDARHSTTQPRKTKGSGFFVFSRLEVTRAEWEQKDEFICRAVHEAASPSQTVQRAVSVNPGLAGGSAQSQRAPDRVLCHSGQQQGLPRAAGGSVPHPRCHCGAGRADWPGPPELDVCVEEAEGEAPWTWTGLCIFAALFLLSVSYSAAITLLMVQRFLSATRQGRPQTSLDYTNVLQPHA

Work on `CC(C)(F)CNS(=O)(=O)c1cc2c(c3cnc(C4CC4)cc13)C(Oc1cccnc1)CC2` (centres unmarked) [Example 93, 3-cyclopropyl-N-(2-fluoro-2-methylpropyl)-9-pyridin-3-yloxy-8,9-dihydro-7H-cyclopenta[h]isoquinoline-5-sulfonamide] yielded an IC50 of 0.1 to 2 µM.

In the case of `CC(C)CNS(=O)(=O)c1cc2c(c3cnc(C4CC4)cc13)CCC2Nc1c(Nc2cccnc2)c(=O)c1=O` (centres unmarked) [Example 84, 3-cyclopropyl-7-[[3,4-dioxo-2-(pyridin-3-ylamino)cyclobuten-1-yl]amino]-N-(2-methylpropyl)-8,9-dihydro-7H-cyclopenta[h]isoquinoline-5-sulfonamide], the IC50 is reported as 0.01 to 0.05 µM.

Work on `COc1ccnc2c1ncn2C1CCc2c1cc(S(=O)(=O)NCC(C)(C)F)c1cc(C3CC3)ncc21` (centres unmarked) [Example 1, 3-cyclopropyl-N-(2-fluoro-2-methylpropyl)-7-(7-methoxyimidazo[4,5-b]pyridin-3-yl)-8,9-dihydro-7H-cyclopenta[h]isoquinoline-5-sulfonamide] yielded an IC50 of 0.1 to 2 µM.

`CCNc1nncn1C1CCc2cc(S(=O)(=O)NCC(C)C)c3cc(C4CC4)ncc3c21` (centres unmarked) [Example 72, 3-cyclopropyl-9-[3-(ethylamino)-1,2,4-triazol-4-yl]-N-(2-methylpropyl)-8,9-dihydro-7H-cyclopenta[h]isoquinoline-5-sulfonamide] showed an IC50 of 0.1 to 2 µM.

`Cn1ncc2c(NC3CCc4cc(S(=O)(=O)NCC(C)(C)F)c5cc(C6CC6)ncc5c43)cncc21` (centres unmarked) [Example 43, 3-cyclopropyl-N-(2-fluoro-2-methylpropyl)-9-[(1-methylpyrazolo[3,4-c]pyridin-4-yl)amino]-8,9-dihydro-7H-cyclopenta[h]isoquinoline-5-sulfonamide] was tested, and the IC50 was 0.1 to 2 µM.

For `CC(C)(F)CNS(=O)(=O)c1cc2c(c3cnc(C4CC4)cc13)C(Nc1cccnc1)CC2` (centres unmarked) [Example 32, 3-cyclopropyl-N-(2-fluoro-2-methylpropyl)-9-(pyridin-3-ylamino)-8,9-dihydro-7H-cyclopenta[h]isoquinoline-5-sulfonamide], the IC50 was 0.05 to 0.1 µM.

In the case of `CCNC1=NS(=O)(=O)N=C1NC1CCc2c1cc(S(=O)(=O)NCC(C)C)c1cc(C3CC3)ncc21` (centres unmarked) [Example 54, 3-cyclopropyl-7-[[4-(ethylamino)-1,1-dioxo-1,2,5-thiadiazol-3-yl]amino]-N-(2-methylpropyl)-8,9-dihydro-7H-cyclopenta[h]isoquinoline-5-sulfonamide], the IC50 is reported as 0.1 to 2 µM.

`CC(C)(F)CNS(=O)(=O)c1cc2c(c3cnc(C4CC4)cc13)CC[C@@H]2NC(=O)c1cccnc1` (single isomer, unassigned) [Example 9, N-[(7R*)-3-cyclopropyl-5-[(2-fluoro-2-methylpropyl)sulfamoyl]-8,9-dihydro-7H-cyclopenta[h]isoquinolin-7-yl]pyridine-3-carboxamide] showed an IC50 of 0.1 to 2 µM.

For `CCNC(=S)NC1CCc2c1cc(S(=O)(=O)NCC(C)C)c1cc(C3CC3)ncc21` (centres unmarked) [Example 51, 1-[3-cyclopropyl-5-(2-methylpropylsulfamoyl)-8,9-dihydro-7H-cyclopenta[h]isoquinolin-7-yl]-3-ethylthiourea], the IC50 was 0.1 to 2 µM.

Work on `O=S(=O)(NC1CC(F)C1)c1cc2c(c3cnc(C4CC4)cc13)CCC2n1cnnc1NCC1CC1` (centres unmarked) [Example 82, 3-cyclopropyl-7-[3-(cyclopropylmethylamino)-1,2,4-triazol-4-yl]-N-(3-fluorocyclobutyl)-8,9-dihydro-7H-cyclopenta[h]isoquinoline-5-sulfonamide] yielded an IC50 of 0.1 to 2 µM.

`Cc1cc(Nc2nncn2[C@H]2CCc3c2cc(S(=O)(=O)NCC(C)(C)F)c2cc(C4CC4)nnc32)n(C)n1` (single isomer, unassigned) [Example 25, (7R*)-3-cyclopropyl-7-[3-[(2,5-dimethylpyrazol-3-yl)amino]-1,2,4-triazol-4-yl]-N-(2-fluoro-2-methylpropyl)-8,9-dihydro-7H-cyclopenta[h]cinnoline-5-sulfonamide] showed an IC50 of 0.05 to 0.1 µM.

Compound `CC(C)(F)CNS(=O)(=O)c1cc2c(c3cnc(C4CC4)cc13)[C@H](NC(=O)c1c[nH]c3cc(F)ccc13)CC2` (single isomer, unassigned) [Example 16, 6-fluoro-N-[(9R*)-3-cyclopropyl-5-[(2-fluoro-2-methylpropyl)sulfamoyl]-8,9-dihydro-7H-cyclopenta[h]isoquinolin-9-yl]-1H-indole-3-carboxamide] has an IC50 of 0.1 to 2 µM.

Compound `CC(C)CNS(=O)(=O)c1cc2c(c3cnc(C4CC4)cc13)CCC2n1cnnc1Nc1cccnc1` (centres unmarked) [Example 91, 3-cyclopropyl-N-(2-methylpropyl)-7-[3-(pyridin-3-ylamino)-1,2,4-triazol-4-yl]-8,9-dihydro-7H-cyclopenta[h]isoquinoline-5-sulfonamide] has an IC50 of 0.01 to 0.05 µM.

`CC(C)CNS(=O)(=O)c1cc2c(c3cnc(C4CC4)cc13)C(n1cnnc1Nc1cncc(F)c1)CC2` (centres unmarked) [Example 6, 3-cyclopropyl-9-[3-[(5-fluoro-3-pyridyl)amino]-1,2,4-triazol-4-yl]-N-isobutyl-8,9-dihydro-7H-cyclopenta[h]isoquinoline-5-sulfonamide] gave an IC50 of 0.1 to 2 µM.

For `CC(C)(F)CNS(=O)(=O)c1cc2c(c3cnc(C4CC4)cc13)CCC2c1cccnc1F` (centres unmarked) [Example 11, 3-cyclopropyl-N-(2-fluoro-2-methylpropyl)-7-(2-fluoropyridin-3-yl)-8,9-dihydro-7H-cyclopenta[h]isoquinoline-5-sulfonamide], the IC50 was 0.1 to 2 µM.

Compound `CC(C)CNS(=O)(=O)c1cc2c(c3cnc(C4CC4)cc13)C(F)CC2` (centres unmarked) [Example 65, 3-cyclopropyl-9-fluoro-N-(2-methylpropyl)-8,9-dihydro-7H-cyclopenta[h]isoquinoline-5-sulfonamide] has an IC50 of 0.1 to 2 µM.

Compound `CC(C)CNS(=O)(=O)c1cc2c(c3cnc(C4CC4)cc13)C(NS(C)(=O)=O)CC2` (centres unmarked) [Example 70, 3-cyclopropyl-9-(methanesulfonamido)-N-(2-methylpropyl)-8,9-dihydro-7H-cyclopenta[h]isoquinoline-5-sulfonamide] has an IC50 of 0.1 to 2 µM.

Compound `CC(C)CNS(=O)(=O)c1cc2c(c3cnc(C4CC4)cc13)C(NC(=O)OCc1ccccc1)CC2` (centres unmarked) [Example 44, benzyl N-[3-cyclopropyl-5-(2-methylpropylsulfamoyl)-8,9-dihydro-7H-cyclopenta[h]isoquinolin-9-yl]carbamate] has an IC50 of 0.1 to 2 µM.

`Cc1cc(-n2cnnc2NC2CCc3c2cc(S(=O)(=O)NCC(C)C)c2cc(C4CC4)ncc32)n(C)n1` (centres unmarked) [Example 88, 3-cyclopropyl-7-[[4-(2,5-dimethylpyrazol-3-yl)-1,2,4-triazol-3-yl]amino]-N-(2-methylpropyl)-8,9-dihydro-7H-cyclopenta[h]isoquinoline-5-sulfonamide] gave an IC50 of 0.1 to 2 µM.

`CC(C)CNS(=O)(=O)c1cc2c(c3cnc(C4CC4)cc13)C(NS(=O)(=O)c1cccnc1)CC2` (centres unmarked) [Example 15, 3-cyclopropyl-N-(2-methylpropyl)-9-(pyridin-3-ylsulfonylamino)-8,9-dihydro-7H-cyclopenta[h]isoquinoline-5-sulfonamide] showed an IC50 of 0.1 to 2 µM.

With `Cn1ncc2c(NC3CCc4c3cc(S(=O)(=O)NCC(C)(C)F)c3cc(C5CC5)ncc43)cncc21` (centres unmarked) [Example 41, 3-cyclopropyl-N-(2-fluoro-2-methylpropyl)-7-[(1-methylpyrazolo[3,4-c]pyridin-4-yl)amino]-8,9-dihydro-7H-cyclopenta[h]isoquinoline-5-sulfonamide] the IC50 was 0.01 to 0.05 µM.

In the case of `CCNC(=S)NC1CCc2cc(S(=O)(=O)NCC(C)C)c3cc(C4CC4)ncc3c21` (centres unmarked) [Example 71, 1-[3-cyclopropyl-5-(2-methylpropylsulfamoyl)-8,9-dihydro-7H-cyclopenta[h]isoquinolin-9-yl]-3-ethylthiourea], the IC50 is reported as 0.1 to 2 µM.

With `CC(C)CNS(=O)(=O)c1cc2c(c3cnc(C4CC4)cc13)CCC2Nc1nc2ccccc2[nH]1` (centres unmarked) [Example 92, 7-(1H-benzimidazol-2-ylamino)-3-cyclopropyl-N-(2-methylpropyl)-8,9-dihydro-7H-cyclopenta[h]isoquinoline-5-sulfonamide] the IC50 was 0.01 to 0.05 µM.

For `[2H]C([2H])(NS(=O)(=O)c1cc2c(c3cnc(C4CC4)cc13)CCC2n1cnnc1NCC1CC1)C(C)C` (centres unmarked) [Example 35, 3-cyclopropyl-7-[3-(cyclopropylmethylamino)-1,2,4-triazol-4-yl]-N-(1,1-dideuterio-2-methylpropyl)-8,9-dihydro-7H-cyclopenta[h]isoquinoline-5-sulfonamide], the IC50 was 0.01 to 0.05 µM.

Work on `CC(C)(F)CNS(=O)(=O)c1cc2c(c3cnc(C4CC4)cc13)CCC2NC1=CC(=O)C1(C)C` (centres unmarked) [Example 60, 3-cyclopropyl-7-[(4,4-dimethyl-3-oxocyclobuten-1-yl)amino]-N-(2-fluoro-2-methylpropyl)-8,9-dihydro-7H-cyclopenta[h]isoquinoline-5-sulfonamide] yielded an IC50 of 0.1 to 2 µM.

Compound `CC(C)CNS(=O)(=O)c1cc2c(c3cnc(C4CC4)cc13)C(Nc1ccc(C(=O)O)nc1)CC2` (centres unmarked) [Example 19, 5-[[3-cyclopropyl-5-(2-methylpropylsulfamoyl)-8,9-dihydro-7H-cyclopenta[h]isoquinolin-9-yl]amino]pyridine-2-carboxylic Acid] has an IC50 of 0.1 to 2 µM.

In the case of `Cc1cc(Nc2nncn2[C@@H]2CCc3c2cc(S(=O)(=O)NCC(C)C)c2cc(C4CC4)ncc32)n(C)n1` (single isomer, unassigned) [Example 87, (7R*)-3-cyclopropyl-7-[3-[(2,5-dimethylpyrazol-3-yl)amino]-1,2,4-triazol-4-yl]-N-(2-methylpropyl)-8,9-dihydro-7H-cyclopenta[h]isoquinoline-5-sulfonamide], the IC50 is reported as 0.01 to 0.05 µM.

Work on `CC(C)(F)CNS(=O)(=O)c1cc2c(c3cnc(C4CC4)cc13)CCC2n1nnnc1N` (centres unmarked) [Example 39, 7-(5-aminotetrazol-1-yl)-3-cyclopropyl-N-(2-fluoro-2-methylpropyl)-8,9-dihydro-7H-cyclopenta[h]isoquinoline-5-sulfonamide] yielded an IC50 of 0.1 to 2 µM.

Work on `Cc1nnc(-c2ccc(NC3CCc4cc(S(=O)(=O)NCC(C)(C)F)c5cc(C6CC6)ncc5c43)cn2)o1` (centres unmarked) [Example 76, 3-cyclopropyl-N-(2-fluoro-2-methylpropyl)-9-[[6-(5-methyl-1,3,4-oxadiazol-2-yl)pyridin-3-yl]amino]-8,9-dihydro-7H-cyclopenta[h]isoquinoline-5-sulfonamide] yielded an IC50 of 0.1 to 2 µM.
